Entries after “also recorded” stand apart in the source; their conditions may differ. Ends that are not written are not given here.
Key:
microorganisms [1] = test: Targeting peptide binding to target microorganisms (Tables 3, 10, 12); details: microorganism(s) the targeting peptide binds; binding in aqueous buffers varied with peptide solubility, preferably 1x PBS
microorganisms [2] = test: Morphology, biofilm and growth disrupting peptides (Table 5); type: cell-based; parameters: key: A: Peptide aggregates; B: Less hyphal formation; Clumps; Diffuse clumps and small polyps; F: Diffuse growth; H: Thin; I: Growth inhibition; Microcolony formation; Rippled; Small polyps; Thick; W: Halo formation on top, microlonies on bottom
Excerpt: In certain embodiments peptides that induce alterations in phenotype or other biological activities can also be used as antimicrobial effector moieties.

microorganisms [3] = test: Peptide activities: targeting/binding, antimicrobial, growth or phenotype altering (Tables 7, 8); type: cell-based; details: peptides having multiple activities

Substance	Target(s) (microorganisms [1])	Organism, effect (microorganisms [2]; S. pneumoniae)	Activities (microorganisms [3])	Organism, effect (microorganisms [2]; E. coli)	Organism, effect (microorganisms [2]; E. faecalis)	Organism, effect (microorganisms [2]; MRSA)	Organism, effect (microorganisms [2]; S. epidermidis)	Organism, effect (microorganisms [2]; C. jejuni)	Organism, effect (microorganisms [2]; C. albicans)
PF-433: peptide having multiple activities (chain 1 MRKEFHNVLSSGQLLADKRPARDYNRK; chain 2 MRKEFHNVLSSGQLLADKRPARDYNRK; Peptide with targeting and/or antimicrobial activity)	S. epidermidis; also recorded: E. coli; also recorded: S. pneumoniae; also recorded: C. jeikeium	S. pneumoniae (H)	G B	–	–	–	–	–	–
PF-434: peptide having multiple activities (chain 1 GQLLADKRPARDYNRK; chain 2 GQLLADKRPARDYNRK; Peptide with targeting and/or antimicrobial activity)	S. epidermidis; also recorded: M. luteus; also recorded: S. pneumoniae; also recorded: C. jeikeium	S. pneumoniae (S)	G B	–	–	–	–	–	–
PF-444: peptide having multiple activities (MAAKLWEEGKMVYASSASMTKRLKLAMSKV; Peptide with targeting and/or antimicrobial activity)	M. luteus; also recorded: C. albicans; also recorded: S. pneumoniae; also recorded: C. jeikeium	S. pneumoniae (R)	G B	E. coli (R)	E. faecalis (C)	MRSA (C)	S. epidermidis (C)	–	–
PF-445: peptide having multiple activities (ASMTKRLKLAMSKV; Peptide with targeting and/or antimicrobial activity)	M. luteus; also recorded: S. pneumoniae; also recorded: C. jeikeium	S. pneumoniae (M)	G B	–	–	–	–	–	–
PF-446: peptide having multiple activities (SGNEKV; Peptide with targeting and/or antimicrobial activity)	M. luteus; also recorded: C. jeikeium	S. pneumoniae (H)	G B	–	–	–	–	–	–
PF-447: peptide having multiple activities (IDKSRNKDQFSHIFGLYNICSG; Peptide with targeting and/or antimicrobial activity)	S. epidermidis; also recorded: M. luteus; also recorded: E. coli; also recorded: S. pneumoniae	S. pneumoniae (C)	G B	–	E. faecalis (C)	MRSA (C)	S. epidermidis (C)	–	–
PF-452: peptide having multiple activities (MNNWIKVAQISVTVINEVIDIMKEKQNGGK; Peptide with targeting and/or antimicrobial activity)	M. luteus; also recorded: P. aeruginosa; also recorded: C. albicans; also recorded: S. pneumoniae; also recorded: E. faecalis; also recorded: C. jeikeium; also recorded: M. smegmatis	S. pneumoniae (R)	G B	E. coli (C)	E. faecalis (C)	MRSA (C)	S. epidermidis (C)	–	–
PF-453: peptide having multiple activities (IIQDIAHAFGY; Peptide with targeting and/or antimicrobial activity)	M. luteus; also recorded: E. coli; also recorded: P. aeruginosa; also recorded: S. pneumoniae; also recorded: E. faecalis; also recorded: C. jeikeium; also recorded: C. jejuni	S. pneumoniae (C)	G B	E. coli (C)	–	MRSA (C)	S. epidermidis (C)	–	–
PF-456: peptide having multiple activities (TCVKPRTIN; Peptide with targeting and/or antimicrobial activity)	C. albicans and MRSA and E. faecalis and C. jeikeium and C. jejuni	–	G B	–	E. faecalis (A)	–	–	C. jejuni (A)	–
PF-457: peptide having multiple activities (INKYHHIA; Peptide with targeting and/or antimicrobial activity)	C. albicans; also recorded: S. pneumoniae; also recorded: E. faecalis; also recorded: C. jeikeium	S. pneumoniae (M)	G B	–	–	–	–	–	–
PF-459: peptide having multiple activities (EKRMSFNENQSHRPLL; Peptide with targeting and/or antimicrobial activity)	P. aeruginosa	S. pneumoniae (H)	G B	–	–	–	–	–	–
PF-462: peptide having multiple activities (KNKTDTL; Peptide with targeting and/or antimicrobial activity)	E. faecalis; also recorded: C. jeikeium	S. pneumoniae (H)	G B	–	–	–	–	–	–
PF-464: peptide having multiple activities (VDMVNRFLGN; Peptide with targeting and/or antimicrobial activity)	S. epidermidis and C. albicans and MRSA and S. pneumoniae and E. faecalis and C. jeikeium and C. jejuni	S. pneumoniae (S)	G B	–	–	–	–	–	–
PF-466: peptide having multiple activities (VRKSDQ; Peptide with targeting and/or antimicrobial activity)	MRSA and C. jeikeium and C. jejuni	S. pneumoniae (H)	G B	–	–	–	–	–	–
PF-467: peptide having multiple activities (YYKDYFKEI; Peptide with targeting and/or antimicrobial activity)	MRSA and E. faecalis and C. jeikeium and C. jejuni	S. pneumoniae (H)	G B	–	–	–	–	–	–
PF-470: peptide having multiple activities (PYSDSYATRPHWEQHRAR; Peptide with targeting and/or antimicrobial activity)	M. luteus and E. coli and MRSA and E. faecalis and C. jeikeium and C. jejuni	–	G B	–	E. faecalis (A)	–	–	C. jejuni (A)	–
PF-476: peptide having multiple activities (WADAQYKLCENCSE; Peptide with targeting and/or antimicrobial activity)	M. luteus; also recorded: P. mirabilis; also recorded: C. albicans; also recorded: S. pneumoniae; also recorded: E. faecalis; also recorded: C. jeikeium; also recorded: C. jejuni	S. pneumoniae (H)	G B	–	–	–	–	–	–
PF-484: peptide having multiple activities (HKKDIRKQVFKN; Peptide with targeting and/or antimicrobial activity)	S. epidermidis; also recorded: M. luteus; also recorded: P. mirabilis; also recorded: E. coli; also recorded: E. faecalis; also recorded: C. jeikeium; also recorded: C. jejuni	–	G B	–	E. faecalis (A)	–	–	–	–
PF-513: peptide having multiple activities (SNGVGLGVGIGSGIRF-NH2)	C. albicans	S. pneumoniae (M)	G B	–	–	–	–	–	–
PF-514: peptide having multiple activities (QRFYKLFYHIDLTNEQALKLFQVK; Peptide with targeting and/or antimicrobial activity)	S. epidermidis and E. coli and P. aeruginosa and C. albicans and MRSA and S. pneumoniae and E. faecalis and C. jeikeium	S. pneumoniae (M)	G B	E. coli (R)	E. faecalis (C)	–	S. epidermidis (C)	–	–
PF-515: peptide having multiple activities (DKSTQDKDIKQAKLLAQELGL-NH2)	S. epidermidis; also recorded: C. albicans; also recorded: S. pneumoniae; also recorded: C. jeikeium	S. pneumoniae (H)	G B	–	–	–	–	–	–
PF-517: peptide having multiple activities (VKPTMTASLISTVC; Peptide with targeting and/or antimicrobial activity)	C. jejuni	S. pneumoniae (M)	G B	–	–	–	–	–	–
PF-518: peptide having multiple activities (SFYSKYSRYIDNLAGAIFLFF; Peptide with targeting and/or antimicrobial activity)	S. epidermidis and E. coli and P. aeruginosa and C. albicans and MRSA and S. pneumoniae and E. faecalis	S. pneumoniae (M)	G B	E. coli (R)	E. faecalis (C)	MRSA (C)	S. epidermidis (C)	–	–
PF-519: peptide having multiple activities (YLVYSGVLATAAAF-NH2)	M. luteus; also recorded: E. faecalis; also recorded: C. jeikeium	S. pneumoniae (S)	G B	E. coli (R)	E. faecalis (C)	MRSA (C)	–	–	–
PF-528: peptide having multiple activities (LVDVVVLIRRHLPKSCS-NH2)	S. epidermidis and P. aeruginosa and C. albicans and MRSA and S. pneumoniae and E. faecalis	S. pneumoniae (R)	G B	E. coli (H)	–	MRSA (H)	S. epidermidis (H)	–	C. albicans (C)
